One may read the EC50 as the midpoint of the concentration-response curve. A high value points to lower potency in that assay.

From US10611740B2, “Aryl dihydro-2H-benzo[b][1,4]oxazine sulfonamide and related compounds for use as agonists of RORγ and the treatment of disease” (Lycera Corporation, priority 2015, dated 2020) come the findings set out here.

One assay has as its target T1, RORγ-LBD (Homo sapiens, UniProt P51449).
T1 construct: made in house; host or cells: SF9 cells (baculovirus)
T1 sequence (P51449 269-508 limits assumed): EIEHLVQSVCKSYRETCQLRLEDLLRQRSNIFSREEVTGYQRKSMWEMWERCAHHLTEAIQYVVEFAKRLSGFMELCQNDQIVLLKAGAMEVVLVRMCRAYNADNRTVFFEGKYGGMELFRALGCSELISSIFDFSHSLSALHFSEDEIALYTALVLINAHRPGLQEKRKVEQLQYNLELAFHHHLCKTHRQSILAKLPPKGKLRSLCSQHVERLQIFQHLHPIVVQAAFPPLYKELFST
Kind of assay: RORγ-Ligand Binding Domain (LBD) TR-FRET Assay.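 For TR-FRET Assay Max Response: 665/615 nm ratio relative to signal without ursolic acid or compound set at 100.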 In kind it is biochemical. The gist of the method: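 This TR-FRET coactivator assay pairs baculovirus-expressed His-RORγ-LBD (~3 nM final) with biotin-SRC1 LXXLL peptide at 200 nM final in pH 7.0 Tris/KCl/EDTA/DTT/BSA buffer.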

The target in the next assay is T2, Gal4-RORγ-LBD (Homo sapiens, UniProt P51449).
T2 construct: expressed in transfected cells; host or cells: HEK-293 cells (pcDNA3.1neo plasmid)
T2 sequence (P51449 269-508 limits assumed): T1 sequence (P51449 269-508 limits assumed)
The assay is described as follows: Gal4-RORγ Luciferase Reporter Assay in HEK-293T Cells. In kind it is cell-based. The conditions noted are these: HEK-293 cells. The gist of the method: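 Luminescence read-out (One-Glo, 10 min RT) after overnight compound exposure at 37 °C in HEK-293 cells carrying Gal4-RORγ-LBD plus a Gal4-luciferase reporter, in the presence of 2 μM ursolic acid. Max Response is the upper plateau from a 4-parameter logistic fit, normalized to untreated signal = 100.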
(A reporter such as luciferase makes a cellular process visible.)

Where [1] appears, read: luciferase reporter, with 2 μM ursolic acid.

In the case of `O=C(O)C1(C[C@H]2CN(S(=O)(=O)c3cccc(C(F)(F)F)c3)c3cc(-c4cccc(C(F)(F)F)c4)ccc3O2)CCOCC1` [Compound 78H, (S)-4-((6-(3-(trifluoromethyl)-phenyl)-4-((3-(trifluoromethyl)-phenyl)sulfonyl)-3,4-dihydro-2H-benzo[b][1,4]oxazin-2-yl)methyl)tetrahydro-2H-pyran-4-carboxylic acid], on RORγ-LBD, the EC50 is less than 500 nM and the “TR-FRET Assay Max Response” value is recorded as “** (The symbol “**” indicates a value in the range of greater than 90 to 150)”. On Gal4-RORγ-LBD (2 μM ursolic acid), the EC50 was less than 500 nM and the “Gal4-RORγ Assay Max Response” value was “* (The symbol “*” indicates a value in the range of 25 to 90)”.
In the case of `C[C@H](C[C@H]1CN(S(=O)(=O)c2cccc(C(F)(F)F)c2)c2cc(-c3cc(F)cc(F)c3Cl)ccc2O1)C(=O)O` [Compound 46B, (R)-3-((S)-6-(2-chloro-3,5-difluorophenyl)-4-((3-(trifluoro-methyl)phenyl)sulfonyl)-3,4-dihydro-2H-benzo[b][1,4]oxazin-2-yl)-2-methylpropanoic acid], at RORγ-LBD, the concentration giving a half-maximal response (EC50) was less than 500 nM and the “TR-FRET Assay Max Response” value is given as “*** (The symbol “***” indicates a value in the range of greater than 150 to 200)”. For the same molecule, on Gal4-RORγ-LBD (setting [1]), the half-maximal effective concentration (EC50) was less than 500 nM and the “Gal4-RORγ Assay Max Response” value is recorded as “** (The symbol “**” indicates a value in the range of greater than 90 to 150)”.
Consider `O=C(O)[C@H]1CCCN1C(=O)NCC[C@H]1CN(S(=O)(=O)c2cccc(C(F)(F)F)c2)c2cc(-c3cc(F)ccc3F)ccc2O1` [Compound 23U, ((2-((S)-6-(2,5-difluorophenyl)-4-((3-(trifluoromethyl)phenyl)-sulfonyl)-3,4-dihydro-2H-benzo[b][1,4]oxazin-2-yl)ethyl)carbamoyl)-D-proline], for which, on RORγ-LBD, the EC50 is less than 500 nM and the “TR-FRET Assay Max Response” value was “**** (The symbol “****” indicates a value greater than 200)”. Moreover, on Gal4-RORγ-LBD (setting [1]), the EC50 was less than 500 nM and the “Gal4-RORγ Assay Max Response” value is recorded as “** (The symbol “**” indicates a value in the range of greater than 90 to 150)”.
Take `Cn1cnc(-c2ccc3c(c2)N(S(=O)(=O)c2cccc(C(F)(F)F)c2)C[C@H](CCC(=O)O)O3)c1` [Compound 4Q, (S)-3-(6-(1-methyl-1H-imidazol-4-yl)-4-((3-(trifluoromethyl)-phenyl)sulfonyl)-3,4-dihydro-2H-benzo[b][1,4]oxazin-2-yl)propanoic acid]: on RORγ-LBD, the EC50 fell in the range of 500 to 5000 nM and the “TR-FRET Assay Max Response” value is “** (The symbol “**” indicates a value in the range of greater than 90 to 150)”. Besides, at Gal4-RORγ-LBD (setting [1]), the half-maximal effective concentration (EC50) was more than 10000 nM.
As to `COc1cc(S(=O)(=O)N2C[C@H](CCC(C)(C)C(=O)O)Oc3ccc(-c4cc(F)cc(OC)c4F)cc32)ccc1F` [Compound 32S, (S)-4-(6-(2,5-difluoro-3-methoxyphenyl)-4-((4-fluoro-3-methoxyphenyl)sulfonyl)-3,4-dihydro-2H-benzo[b][1,4]oxazin-2-yl)-2,2-dimethylbutanoic acid], on RORγ-LBD, the EC50 is less than 500 nM and the “TR-FRET Assay Max Response” value was “*** (The symbol “***” indicates a value in the range of greater than 150 to 200)”. On Gal4-RORγ-LBD (2 μM ursolic acid), the EC50 is less than 500 nM and the “Gal4-RORγ Assay Max Response” value was “** (The symbol “**” indicates a value in the range of greater than 90 to 150)”.
In the case of `C=CCC(=O)NC[C@H]1CN(S(=O)(=O)c2cccc(C(F)(F)F)c2)c2cc(-c3cc(F)ccc3F)ccc2O1` [Compound 30AW, (S)-N-((6-(2,5-difluorophenyl)-4-((3-(trifluoromethyl)phenyl)-sulfonyl)-3,4-dihydro-2H-benzo[b][1,4]oxazin-2-yl)methyl)but-3-enamide], on RORγ-LBD, the EC50 was less than 500 nM and the “TR-FRET Assay Max Response” value is “*** (The symbol “***” indicates a value in the range of greater than 150 to 200)”. In addition, on Gal4-RORγ-LBD (setting [1]), the EC50 is less than 500 nM and the “Gal4-RORγ Assay Max Response” value is listed as “** (The symbol “**” indicates a value in the range of greater than 90 to 150)”.
For `CC(C)(C[C@H]1CN(S(=O)(=O)c2cccc(C(F)(F)F)c2)c2cc(-c3cc(F)ccc3F)ccc2O1)NC(=O)C(C)(C)O` [Compound 30CX, (S)-N-(1-(6-(2,5-difluoro-phenyl)-4-((3-(trifluoromethyl)-phenyl)sulfonyl)-3,4-dihydro-2H-benzo[b][1,4]oxazin-2-yl)-2-methylpropan-2-yl)-2-hydroxy-2-methylpropanamide], on RORγ-LBD, the EC50 was less than 500 nM and the “TR-FRET Assay Max Response” value is “** (The symbol “**” indicates a value in the range of greater than 90 to 150)”. Besides, on Gal4-RORγ-LBD (2 μM ursolic acid), the EC50 is less than 500 nM and the “Gal4-RORγ Assay Max Response” value is on record as “* (The symbol “*” indicates a value in the range of 25 to 90)”.
Turning to `CC(=O)OCC(=O)NC[C@H]1CN(S(=O)(=O)c2cccc(C(F)(F)F)c2)c2cc(-c3cc(F)ccc3F)ccc2O1` [Compound 30AY, (S)-2-(((6-(2,5-difluorophenyl)-4-((3-(trifluoromethyl)phenyl)-sulfonyl)-3,4-dihydro-2H-benzo[b][1,4]oxazin-2-yl)methyl)amino)-2-oxoethyl acetate], at RORγ-LBD, the EC50 was less than 500 nM and the “TR-FRET Assay Max Response” value was “*** (The symbol “***” indicates a value in the range of greater than 150 to 200)”. Besides, on Gal4-RORγ-LBD (setting [1]), the 50% effective concentration (EC50) is less than 500 nM and the “Gal4-RORγ Assay Max Response” value was “** (The symbol “**” indicates a value in the range of greater than 90 to 150)”.
In the case of `CC(C)(C[C@H]1CN(S(=O)(=O)c2cccc(C(F)(F)F)c2)c2cc(-c3cc(F)cc(Cl)c3F)ccc2O1)C(=O)O` [Compound 32AI, (S)-3-(6-(3-chloro-2,5-difluoro-phenyl)-4-((3-(trifluoromethyl)-phenyl)sulfonyl)-3,4-dihydro-2H-benzo[b][1,4]oxazin-2-yl)-2,2-dimethylpropanoic acid], at RORγ-LBD, the EC50 is less than 500 nM and the “TR-FRET Assay Max Response” value is given as “*** (The symbol “***” indicates a value in the range of greater than 150 to 200)”. For the same molecule, at Gal4-RORγ-LBD (2 μM ursolic acid), the EC50 is less than 500 nM and the “Gal4-RORγ Assay Max Response” value was “** (The symbol “**” indicates a value in the range of greater than 90 to 150)”.
In the case of `O=C(O)CC[C@H]1CN(S(=O)(=O)c2cccc(C(F)(F)F)c2)c2cc(-c3cc(F)cc(Cl)c3)ccc2O1` [Compound 2I, (S)-3-(6-(3-chloro-5-fluorophenyl)-4-((3-(trifluoro-methyl)phenyl)sulfonyl)-3,4-dihydro-2H-benzo[b][1,4]-oxazin-2-yl)propanoic acid], at RORγ-LBD, the EC50 is less than 500 nM and the “TR-FRET Assay Max Response” value is “*** (The symbol “***” indicates a value in the range of greater than 150 to 200)”. For the same molecule, on Gal4-RORγ-LBD (setting [1]), the EC50 is less than 500 nM and the “Gal4-RORγ Assay Max Response” value is “*** (The symbol “***” indicates a value in the range of greater than 150 to 200)”.
As for `O=C(O)CC[C@H]1CN(S(=O)(=O)c2cccc(Cl)c2)c2cc(-c3cccc(Cl)c3)ccc2O1` [Compound 6B, (S)-3-(6-(3-chlorophenyl)-4-((3-chlorophenyl)sulfonyl)-3,4-dihydro-2H-benzo[b][1,4]oxazin-2-yl)propanoic acid], on RORγ-LBD, the EC50 was less than 500 nM and the “TR-FRET Assay Max Response” value was “**** (The symbol “****” indicates a value greater than 200)”. On Gal4-RORγ-LBD (setting [1]), the EC50 was 500 to 5000 nM and the “Gal4-RORγ Assay Max Response” value is given as “** (The symbol “**” indicates a value in the range of greater than 90 to 150)”.
